Results on six molecules are retold here after patent publication US20110257202A1, “Therapeutic Compositions and Methods for Treating Chronic Kidney Disease Associated with a Metabolic Imbalance” (priority 2008, published 2011).

Entries after “also recorded” stand apart in the source; their conditions may differ.

One data set concerns eNOSKO mice. Conditions: 4 weeks, 50 mg/l drinking water. As for the experimental part:
Since nitrite is a metabolite of NO, and can be converted to NO in the body (reviewed in ^28), sodium nitrite was tested to see if it could prevent hypertension in eNOSKO mice.

Data set [1] relates to wild type diabetic (DM) mice. As to the kind of experiment: Renal histology (early diabetic nephropathy) in wild type diabetic mice. It counts as in vivo. From the text: These are considered early changes of diabetic nephropathy.
(§1) FIG. 4 ACE inhibitors and ARBs are not effective at preventing diabetic nephropathy in eNOSKO mice. DM caused mesangial expansion in DM eNOSKO mice (B), which was not prevented by enalapril (C) or telmisartan (D). […] Bar: 20 μm. […] Bar: 20 μm. White bar=no treatment; Black bar=enalapril; Gray bar=telmisartan. Data are shown as means and
(§2) FIG. 1 is a graph showing that ACE inhibitors are effective in lowering blood pressure in wild type diabetic (DM) mice. Shown in FIG. 1 is the effect of no treatment (No TX), the ACE inhibitor enalapril (DM enalapril), and the ARB telmisartan (DM telmisartan). […] These are considered early changes of diabetic nephropathy.
(§3) DM caused mesangial expansion in DM eNOSKO mice (b), which was not prevented by enalapril (c) or telmisartan (d). […] Bar: 20 μm. […] Bar: 20 μm. White bar=no treatment; Black bar=enalapril; Gray bar=telmisartan. FIG. 5 pertains to a table that provides results of the effect of ACE inhibitors and ARBs on blood pressure and renal function in diabetic nephropathy in eNOSKO mice. ACE inhibitors and ARBs are effective at lowering blood pressure and proteinuria in wild type diabetic mice, and are also effective at lowering blood pressure in nondiabetic eNOSKO mice.

Data set [2] concerns DM eNOSKO mice. As to the kind of experiment: Renal histology (diabetic nephropathy) in diabetic eNOSKO mice. It is filed as in vivo.
Source text: It has been shown that when diabetes is induced in these mice with streptozotocin, that they develop all aspects of human diabetic nephropathy, including clinical manifestations (nephrotic proteinuria, progressive renal failure and early mortality), histologic manifestations (including mesangial expansion, nodules and mesangiolysis, podocyte abnormalities, vascular lesions, tubulointerstitial disease) and molecular changes (increases in TGF-β and VEGF expression). To the inventors' knowledge this is also the first diabetic model that develops both retinopathy and nephropathy spontaneously.
as §1
FIG. 7 is an immunohistograph of a kidney of a Diabetic eNOSKO mouse showing an increase in aldosterone in its glomeruli. Diabetes was induced with streptozotocin in eNOSKO mice, which were treated with enalapril (10 mg/kg BW/day; black bar) or telmisartan (2 mg/kg BW/day; gray bar) for 4 weeks (from at 6 weeks to 10 weeks)
as §3

The subject of data set [3] is wild type diabetic (DM) mice. Put plainly: Blood pressure in wild type diabetic mice. It is filed as in vivo.
Source text: FIG. 1 represents a graph showing that ACE inhibitors are effective in lowering blood pressure in wild type diabetic (DM) mice. Shown in FIG. 1 is the effect of no treatment (No TX), the ACE inhibitor enalapril (DM enalapril), and the ARB telmisartan (DM telmisartan).
as §2

Data set [4] relates to DM eNOSKO mice. The settings on record: diabetic eNOS-deficient mice; reference 21; cited from earlier work.
Data set [5] deals with porcine aortic endothelial cells. The settings on record: various doses, from Khosla et al; cited from earlier work.
For data set [6], the system named is human aortic endothelial cells. Put plainly: Cell viability (trypan blue exclusion). Conditions: 48 hours. It is filed as cell-based.
Data set [7] concerns human aortic endothelial cells. Put plainly: ATP levels in endothelial cells. It counts as cell-based. The settings on record: 3.5, 7 and 12 mg/dl, 48 hours. As for the experimental part: Uric acid (3.5 mg/dl, 7 mg/dl and 12 mg/dl) was included in the media for 48 hours.
(§4) One of the key mechanisms by which uric acid acts to cause endothelial dysfunction is to cause a loss of mitochondria and mitochondria DNA, resulting in depletion of ATP stores necessary for endothelial function (FIGS. 11 and 12).

Data set [8] relates to human aortic endothelial cells. As to the kind of experiment: Mitochondria number (Mitotracker Orange) in endothelial cells. It is filed as cell-based. Conditions: 12 mg/dl, 48 hours. As for the experimental part: Mitochondria numbers were measured with Mitotracker Orange in control cells (FIG. 12A) and UA treated cells (FIG. 12B). Shown in FIG. 12C is the quantified effect of uric acid 12 mg/dl on mitochondria density at 48 hours.
as §4

Data set [9] deals with human aortic endothelial cells. Put plainly: Oxidative stress (DCF-DA fluorescence) in endothelial cells. Conditions: 12 mg/dl. It counts as cell-based. As for the experimental part: The green fluorescence is a measure of a marker for oxidative stress using the peroxide-sensitive probe 2′7′-dichlorofluorescein diacetate (DCF-DA) dye (FIG. 9A). On the right is the quantitation of oxidative stress, with control in open bar, uric acid (12 mg/dl) in the black bar, and uric acid with apocynin (an inhibitor of NADPH oxidase-induced oxidants) in the right bar (FIG. 9B).

The test system of data set [10] is DM eNOSKO mice. Put plainly: Blood pressure in diabetic eNOSKO mice. The settings on record: diabetic mice lacking endothelial nitric oxide synthesis; 50 mg/kg. It counts as in vivo.
Another data set relates to mitochondria. As to the kind of experiment: Mitochondrial loss in response to oxidative stress.

As for `O=NO` [sodium nitrite], the blood pressure result in the data set on eNOSKO mice is recorded as “reduced blood pressure in eNOSKO mice similar to that observed in wild type mice”.
Take `CCCc1nc2c(C)cc(-c3nc4ccccc4n3C)cc2n1Cc1ccc(-c2ccccc2C(=O)O)cc1` [telmisartan]: in [1], the “glomerular type IV collagen deposition” value was “improve” and the mesangial expansion entry is given as “improve mesangial expansion; also recorded: beneficial effect”. Further, in the data set with DM eNOSKO mice [2], the “advanced lesions (mesangiolysis with glomerular capillary microaneurysms, augmented deposition of extracellular matrix)” value is on record as “Neither enalapril (g) nor telmisartan (h) treatment prevented these advanced lesions” and the mesangial expansion entry is given as “not prevented”. Also, the “blood pressure (BP)” value in [3] is “can significantly lower blood pressure”.
Consider insulin, for which, in the data set on DM eNOSKO mice [4], the renal disease result was “can be prevented”.
As for `O=c1[nH]c(=O)c2[nH]c(=O)[nH]c2[nH]1` [uric acid], in [5], the “endothelial NO levels (fluorescence of DAF)” value is reported as “causes a reduction in endothelial NO levels”. Further, the cell viability entry in data set [6] (12 mg/dl) is “No effects on cell viability”. The “cell viability (trypan blue exclusion)” value in data set [6] (3.5, 7 and 12 mg/dl) is recorded as “No alterations in cell viability”. In addition, the ATP levels entry in data set [7] was “reduces ATP levels”. Also, the mitochondria number result in [8] was “reduces mitochondria number”. Moreover, in data set [9], the “oxidative stress (DCF-DA)” value is listed as “causes oxidative stress”.
With `CCOC(=O)[C@H](CCc1ccccc1)N[C@@H](C)C(=O)N1CCC[C@H]1C(=O)O` [enalapril], in the data set on DM eNOSKO mice [10], the BP entry was “did not lower BP”. For the same molecule, in [1], the “glomerular type IV collagen deposition” value was “improve” and the mesangial expansion result is “improve mesangial expansion; also recorded: beneficial effect”. In the data set with DM eNOSKO mice [2], the “advanced lesions (mesangiolysis with glomerular capillary microaneurysms, augmented deposition of extracellular matrix)” value is “Neither enalapril (g) nor telmisartan (h) treatment prevented these advanced lesions” and the mesangial expansion result is “not prevented”. Further, the “blood pressure (BP)” value in data set [3] is listed as “can significantly lower blood pressure”.
As for `O=C(NCCO[N+](=O)[O-])c1cccnc1` [nicorandil], the mitochondrial loss entry in the data set on mitochondria is “can prevent mitochondrial loss”.
